Assay results: patent US10336762B2 (priority 2017, dated 2019)
Read-outs that look alike come from different tables or passages of the source.

Legend:
IRAK4 enzyme = IRAK4 enzyme (Homo sapiens (Human), UniProt Q9NWZ3); assay: biochemical; assay type: biochemical
TNFα = assay: cells; assay type: cell-based, human; conditions: Homo sapiens, Monocyte, read-out: EC50 TNF
[1] = IRAK4 enzyme, TR-FRET (HTRF), 500 μM ATP
[2] = LPS-stimulated human monocytes, TNFα content
[3] = IRAK4 enzyme, TR-FRET, 500 μM ATP
[4] = LPS-stimulated human monocytes, TNFα by TR-FRET

Sequence of IRAK4 enzyme (Q9NWZ3 whole entry): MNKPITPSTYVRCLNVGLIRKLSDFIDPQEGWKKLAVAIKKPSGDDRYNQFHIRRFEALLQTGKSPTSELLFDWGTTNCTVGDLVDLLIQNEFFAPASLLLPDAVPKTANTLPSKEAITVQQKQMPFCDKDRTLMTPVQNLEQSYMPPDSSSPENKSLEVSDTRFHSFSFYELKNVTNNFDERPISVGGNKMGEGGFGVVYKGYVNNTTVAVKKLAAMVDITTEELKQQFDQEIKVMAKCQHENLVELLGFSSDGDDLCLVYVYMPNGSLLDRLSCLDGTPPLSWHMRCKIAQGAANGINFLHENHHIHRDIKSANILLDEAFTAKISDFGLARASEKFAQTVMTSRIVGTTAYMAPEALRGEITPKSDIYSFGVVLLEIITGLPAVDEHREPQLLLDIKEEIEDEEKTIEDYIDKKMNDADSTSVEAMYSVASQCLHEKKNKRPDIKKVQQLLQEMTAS

Structure (SMILES)	IC50 (IRAK4 enzyme; [1]) [nM]	EC50 (TNFα; [2]) [nM]	IC50 (IRAK4 enzyme; [3]) [nM]	also measured
CC(=O)NC12CC(Nc3cc(-c4ccc5cc(C#N)cnn45)ncc3C(=O)N[C@H]3CC[C@H](C(=O)N4CC(F)(F)C4)CC3)(C1)C2 [Example 478, 4-((3-acetamido-bicyclo[1.1.1]pentan-1-yl)amino)-6-(3-cyano-pyrrolo[1,2-b]pyridazin-7-yl)-N-((1r,4r)-4-(3,3-difluoroazetidine-1-carbonyl)cyclohexyl) nicotinamide]	1	73		
CN(C)C(=O)N[C@H]1CC[C@H](Nc2cc(-c3ccc4cc(C#N)cnn34)ncc2C(=O)NC[C@@H](F)C(C)(C)O)CC1 [Example 286, 6-(3-cyanopyrrolo[1,2-b]pyridazin-7-yl)-4-(((1r,4R)-4-(3,3-dimethylureido)cyclohexyl)amino)-N-((R)-2-fluoro-3-hydroxy-3-methylbutyl)nicotinamide]		41	1	
CN(C)C(=O)OC12CCC(Nc3cc(-c4ccc5cc(C#N)cnn45)ncc3C(=O)NC[C@@H](F)C(C)(C)O)(CC1)CC2 [Example 411, (R)-4-((2-(3-cyano-pyrrolo[1,2-b]pyridazin-7-yl)-5-((2-fluoro-3-hydroxy-3-methylbutyl)carbamoyl)pyridin-4-yl)amino)bicyclo[2.2.2] octan-1-yl dimethylcarbamate]	2	62		
COC(=O)NC[C@H]1CC[C@H](Nc2cc(-c3ccc4cc(C#N)cnn34)ncc2C(=O)NC[C@@H](F)C(C)(C)O)CC1 [Example 556, methyl (((1R,4r)-4-((2-(3-cyanopyrrolo[1,2-b]pyridazin-7-yl)-5-(((R)-2-fluoro-3-hydroxy-3-methylbutyl)carbamoyl)pyridin-4-yl)amino)cyclo-hexyl)methyl)carbamate]	1	18		
[2H]C([2H])([2H])N(C(=O)C12CCC(Nc3cc(-c4ccc5cc(C#N)cnn45)ncc3C(=O)NC[C@@H](F)C(C)(C)O)(CC1)CC2)C([2H])([2H])[2H] [Example 404, (R)-4-((4-(bis(methyl-d3)carbamoyl)bicyclo[2.2.2]octan-1-yl)amino)-6-(3-cyanopyrrolo[1,2-b]pyridazin-7-yl)-N-(2-fluoro-3-hydroxy-3-methylbutyl)nicotinamide]	1	11		
CC(C)(O)[C@H](F)CNC(=O)c1cnc(-c2ccc3cc(C#N)cnn23)cc1Nc1ccccc1C(N)=O [Example 382, (R)-4-((2-carbamoyl-phenyl)amino)-6-(3-cyanopyrrolo[1,2-b]pyridazin-7-yl)-N-(2-fluoro-3-hydroxy-3-methylbutyl)nicotinamide]		586	10	
CNC(=O)[C@H]1CC[C@H](NC(=O)c2cnc(-c3ccc4cc(C#N)cnn34)cc2NC23CC(NC(C)=O)(C2)C3)CC1 [Example 479, 4-((3-acetamidobicyclo[1.1.1]pentan-1-yl)amino)-6-(3-cyanopyrrolo[1,2-b]pyridazin-7-yl)-N-((1r,4r)-4-(methylcarbamoyl)cyclohexyl)nicotinamide]	< 1	71		
CC(C)(O)[C@H](F)CNC(=O)c1cnc(-c2ccc3cc(C#N)cnn23)cc1N[C@H]1CCC[C@@H](N2CCOCC2)C1 [Example 524, 6-(3-cyanopyrrolo[1,2-b]pyridazin-7-yl)-N-((R)-2-fluoro-3-hydroxy-3-methylbutyl)-4-(((1S,3R)-3-morpholinocyclohexyl)amino)nicotinamide]	1	97		
CNC(=O)[C@H](C)Nc1cc(-c2ccc3cc(C#N)cnn23)ncc1C(=O)NC[C@@H](F)C(C)(C)O [Example 108, 6-(3-cyanopyrrolo[1,2-b]pyridazin-7-yl)-N-((R)-2-fluoro-3-hydroxy-3-methylbutyl)-4-(((S)-1-(methylamino)-1-oxopropan-2-yl)amino) nicotinamide]		> 10000	88	
CC(C)(O)[C@H](F)CNC(=O)c1cnc(-c2ccc3cc(C#N)cnn23)cc1Nc1ccc(CNCC(F)F)cc1 [Example 872, (R)-6-(3-cyanopyrrolo[1,2-b]pyridazin-7-yl)-4-((4-(((2,2-difluoroethyl)amino)methyl)phenyl)amino)-N-(2-fluoro-3-hydroxy-3-methylbutyl)nicotinamide]			< 1	EC50 (TNFα; [4]): 14 nM
COC(=O)N1CC[C@H](CNC(=O)c2cnc(-c3ccc4cc(C#N)cnn34)cc2NC23CCC(O)(CC2)CC3)C1 [Example 741, (R)-methyl 3-((6-(3-cyano-pyrrolo[1,2-b]pyridazin-7-yl)-4-((4-hydroxybicyclo[2.2.2]octan-1-yl)amino)nicotin-amido)methyl)pyrrolidine-1-carboxylate]	< 1	124		
COC(=O)NCC1(F)CC(Nc2cc(-c3ccc4cc(C#N)cnn34)ncc2C(=O)NC[C@@H](F)C(C)(C)O)C1 (stereo partly drawn) [Example 758, (R)-methyl ((3-((2-(3-cyanopyrrolo[1,2-b]pyridazin-7-yl)-5-((2-fluoro-3-hydroxy-3-methylbutyl)carbamoyl)pyridin-4-yl)amino)-1-fluorocyclobutyl)methyl)carbamate]	1	11		
CC(C)C(=O)NCc1ccc(Nc2cc(-c3ccc4cc(C#N)cnn34)ncc2C(=O)NC[C@@H](F)C(C)(C)O)cc1 [Example 203, (R)-6-(3-cyanopyrrolo[1,2-b]pyridazin-7-yl)-N-(2-fluoro-3-hydroxy-3-methylbutyl)-4-((4-(isobutyramidomethyl)phenyl)amino) nicotinamide]		44	< 1	
CC(=O)NC12CC(Nc3cc(-c4ccc5cc(C#N)cnn45)ncc3C(=O)NC3(C#N)CC3)(C1)C2 [Example 492, 4-((3-acetamido-bicyclo[1.1.1]pentan-1-yl)amino)-N-(1-cyano-cyclopropyl)-6-(3-cyanopyrrolo[1,2-b]pyridazin-7-yl)nicotinamide]	1	101		
CC(C)(O)[C@H](F)CNC(=O)c1cnc(-c2ccc3cc(C#N)cnn23)cc1NC1CC2(CC(O)C2)C1 (stereo partly drawn) [Example 511, (R)-6-(3-cyano-pyrrolo[1,2-b]pyridazin-7-yl)-N-(2-fluoro-3-hydroxy-3-methylbutyl)-4-((6-hydroxyspiro[3.3]heptan-2-yl)amino) nicotinamide]	< 1	26		
COC(=O)N1CC[C@@H](CNC(=O)c2cnc(-c3ccc4cc(C#N)cnn34)cc2NC23CCC(O)(CC2)CC3)C1 [Example 742, (S)-methyl 3-((6-(3-cyano-pyrrolo[1,2-b]pyridazin-7-yl)-4-((4-hydroxy-bicyclo[2.2.2]octan-1-yl)amino)nicotinamido)methyl)pyrrolidine-1-carboxylate]	1	126		
CC(C)(O)[C@H](F)CNC(=O)c1cnc(-c2ccc3cc(C#N)cnn23)cc1Nc1cnn([C@@H]2CNC[C@@H]2F)c1 [Example 883, 6-(3-cyanopyrrolo[1,2-b]pyridazin-7-yl)-N-((R)-2-fluoro-3-hydroxy-3-methylbutyl)-4-((1-((3R,4S)-4-fluoro-pyrrolidin-3-yl)-1H-pyrazol-4-yl)amino) nicotinamide]			< 1	EC50 (TNFα; [4]): 90 nM
CC(C)Nc1cc(-c2ccc3cc(C#N)cnn23)ncc1C(=O)NCC(F)(F)CN [Example 552, N-(3-amino-2,2-difluoro-propyl)-6-(3-cyano-pyrrolo[1,2-b]pyridazin-7-yl)-4-(isopropyl-amino)nicotinamide]	7	1160		
CNC(=O)O[C@H]1CC[C@@H](Nc2cc(-c3ccc4cc(C#N)cnn34)ncc2C(=O)NC[C@@H](F)C(C)(C)O)CC1 [Example 168, (1S,4s)-4-((2-(3-cyano-pyrrolo[1,2-b]pyridazin-7-yl)-5-(((R)-2-fluoro-3-hydroxy-3-methylbutyl)carbamoyl)pyridin-4-yl)amino)cyclohexyl methylcarbamate]		> 10000	1000	
CNC(=O)c1cnc(-c2ccc3cc(C#N)cnn23)cc1NC12CCC(O)(CC1)CC2 [Example 361, 6-(3-cyanopyrrolo[1,2-b]pyridazin-7-yl)-4-((4-hydroxybicyclo[2.2.2]octan-1-yl)amino)-N-methylnicotinamide]		50	1	
CC(C)(O)[C@H](F)CNC(=O)c1cnc(-c2ccc3cc(C#N)cnn23)cc1Nc1cnn(CC(F)(F)F)c1 [Example 49, (R)-6-(3-cyanopyrrolo[1,2-b]pyridazin-7-yl)-N-(2-fluoro-3-hydroxy-3-methylbutyl)-4-((1-(2,2,2-trifluoroethyl)-1H-pyrazol-4-yl)amino)nicotinamide]		8	< 1	
COC(=O)NCc1ccc(Nc2cc(-c3ccc4cc(C#N)cnn34)ncc2C(=O)NC[C@@H](F)C(C)(C)O)cc1F [Example 834, (R)-methyl (4-((2-(3-cyano-pyrrolo[1,2-b]pyridazin-7-yl)-5-((2-fluoro-3-hydroxy-3-methylbutyl)carbamoyl)pyridin-4-yl)amino)-2-fluorobenzyl)carbamate]			< 1	EC50 (TNFα; [4]): 23 nM
CC(C)(O)[C@H](F)CNC(=O)c1cnc(-c2ccc3cc(C#N)cnn23)cc1N[C@H]1CC[C@H](NCC(F)(F)F)CC1 [Example 289, 6-(3-cyanopyrrolo[1,2-b]pyridazin-7-yl)-N-((R)-2-fluoro-3-hydroxy-3-methylbutyl)-4-(((1r,4R)-4-((2,2,2-trifluoroethyl)amino)cyclohexyl)amino)nicotinamide]				IC50 (IRAK4 enzyme): 1 nM; EC50 (TNFα): 66 nM
CNC(=O)c1cnc(-c2ccc3cc(C#N)cnn23)cc1NC12CCC(NC(C)=O)(CC1)C2 [Example 473, 4-((4-acetamido-bicyclo[2.2.1]heptan-1-yl)amino)-6-(3-cyano-pyrrolo[1,2-b]pyridazin-7-yl)-N-methylnicotinamide]	1	33		
CC(C)(O)[C@H](F)CNC(=O)c1cnc(-c2ccc3cc(C#N)cnn23)cc1Nc1ccc(N2CC3(COC3)C2)nc1 [Example 684, (R)-4-((6-(2-oxa-6-azaspiro[3.3]heptan-6-yl)pyridin-3-yl)amino)-6-(3-cyanopyrrolo[1,2-b]pyridazin-7-yl)-N-(2-fluoro-3-hydroxy-3-methylbutyl)nicotinamide]	1	89		
